Assays:
Type in all cases: in vivo, human
[1] = system: Autistic Spectrum Disorder(ASD); test: Treatment of child with Autistic Spectrum Disorder with Aztreonam, then added Vancomycin (case report); settings: Aztreonam 50 mg 3 times daily; about two weeks after starting
Method: A child who was diagnosed with development of Autistic Spectrum Disorder(ASD) with change in bowel habit, withdrawal from ‘society’ and loss of vocabulary/words/vocalizing ability as well as reduced socialisation and eye contact was treated with Aztreonam 50 mg 3 times daily.

ASD = test: Treatment of person with ASD, chronic constipation and abdominal discomfort with oral Vancomycin (case report)
Method: A patient was brought by their parent for consultation. They had been suffering from ASD since early childhood but also had chronic constipation and abdominal discomfort. The treatment was focussed on the constipation problem as this was the major component of their complaints when interviewed. They were commenced on to 50 mg Vancomycin twice daily for the first week increasing to 250 mg 3 times daily as an oral dose which is not absorbed. […] However they also noticed a change in behaviour of the child. They were much calmer, with their low vocabulary and inability to complain formally, they were no longer screaming and vocalising their pain using repetitive movements. […] This is both with verbal and non-verbal communication.

OCD = test: Exemplary treatment of OCD in adult with rifaximin (case report)
Method: A married office worker had suffered with OCD since childhood. Having been treated with various pharmacologic agents through life their behaviour patterns were largely controlled except for one behaviour of needing to check gas outlets and powerpoints every night in case their children were hurt or damaged overnight by some unforseen accident. This continued to be a ‘sleep-draining’ issue not controllable by Zoloft, anfranil and other drugs.
They were commenced on rifaximin 500 mg capsules twice daily for the first week, then 1 g twice daily thereafter.
They remain on long term rifaximin.

[2] = system: Autism Spectrum Disorder (ASD); test: Treatment of twin sisters with Autism Spectrum Disorder and OCD component with oral Gentamicin, then added Rifaximin (case report); settings: oral Gentamicin 80 mg 3 times daily in capsules; within three weeks
Method: Twin sisters who were diagnosed with Autism Spectrum Disorder (ASD) at different levels of reading capability, writing and comprehension in Grade 3 and 4, together with abdominal cramping and alternating hard/soft defecation changes were started on oral Gentamicin 80 mg 3 times daily in capsules. […] After three weeks Rifaximin was added to the mix of drugs at a dose of 500 mg twice daily and the patients were further observed with a combination of Gentamicin and Rifaximin.

[3] = oral Vancomycin, at four week interview

## C[C@H]1[C@H](NC(=O)/C(=N\OC(C)(C)C(=O)O)c2csc(N)n2)C(=O)N1S(=O)(=O)O [Aztreonam]
[1]
  eye contact: greater eye contact
  loose motions: reduction in the loose motions
  socialisation with the other children: greater socialisation
  word power: no increase in word power

## CN[C@H](CC(C)C)C(=O)N[C@H]1C(=O)N[C@@H](CC(N)=O)C(=O)N[C@H]2C(=O)N[C@H]3C(=O)N[C@H](C(=O)N[C@H](C(=O)O)c4cc(O)cc(O)c4-c4cc3ccc4O)[C@H](O)c3ccc(c(Cl)c3)Oc3cc2cc(c3O[C@@H]2O[C@H](CO)[C@@H](O)[C@H](O)[C@H]2O[C@H]2C[C@](C)(N)[C@H](O)[C@H](C)O2)Oc2ccc(cc2Cl)[C@H]1O [Vancomycin]
ASD; oral Vancomycin 50 mg twice daily first week increasing to 250 mg 3 times daily, initially
  abdominal discomfort initially after start of treatment: some increase in abdominal discomfort
ASD; oral Vancomycin 750 mg to 1 g, nine months of treatment
  side effects from the medication: without any undue side effects
ASD; oral Vancomycin, after four months
  communication, verbal and non-verbal: better communication between the parents and the child
ASD; [3]
  behaviour of the child: much calmer
  constipation and pain: markedly improved
  repetitive movements: came down quite markedly
ASD; oral Vancomycin, within a few days onwards
  pain: progressively disappeared
ASD; oral Vancomycin, within a few days, before: once every three to four days
  bowel function (evacuation frequency): daily or twice daily and even three times daily evacuation

## CO[C@H]1/C=C/O[C@@]2(C)Oc3c(C)c(O)c4c(O)c(c5c(nc6cc(C)ccn65)c4c3C2=O)NC(=O)/C(C)=C\C=C\[C@H](C)[C@H](O)[C@@H](C)[C@@H](O)[C@@H](C)[C@H](OC(C)=O)[C@@H]1C [rifaximin]
OCD; next 3 months of monitoring their behaviour
  persistence of the improvement during monitoring: almost universal
OCD; person, rifaximin 500 mg capsules twice daily first week, then 1 g twice daily
  OCD behaviour: need to check gas outlets and powerpoints every night: absence of the need to check the gas outlets and powerpoints
OCD; person, rifaximin 500 mg twice daily first week, then 1 g twice daily
  time until absence of the checking behaviour was noticed: ≤ 10 days

## Gentamicin
[2]
  episodes of OCD behaviour: marked reduction in the number of episodes of OCD behaviour
